Reference: patent publication US20250027086A1, “COMPOSITIONS AND METHODS FOR TREATMENT OF CANCERS USING MODIFIED siRNA-GEM AGENTS” (Sirnaomics, Inc., priority 2022, published 2025)
Entries after “also recorded” stand apart in the source; their conditions may differ. Read-outs that look alike come from different tables or passages of the source. Values belong to the compound of their own block, whether it stands above or below them.

Tests used:
MDA-MB231 cells = test: Cell viability in triple negative breast cancer cell line MDA-MB231; format: cell-based; settings: MDA-MB231, 400 cells per well; FIG. 13(a)
Method: (§1) MIA PaCa-2, […], LS180, HT1376, HT29, H358, H1299, OVCAR-3, HTB-9 and Panc 10.05 cells were obtained from ATCC (Rockville, MD). MiaPaCa cells were cultured in DMEM medium supplemented with 10% FBS. H358, H1299, HTB-9, N87 and Panc 10.05 cells were cultured in DMEM/10% FBS; LS180 and HT1376 in EMEM/10% FBS; HT29 cells in McCoy5A/10% FBS; OVCAR-3 cells were incubated in RPMI/20% FBS. All cells were maintained at 37 degrees C. in an atmosphere containing 5% CO^2.
(§2) The day before transfection, cells were seeded in a 384-well plate at an optimal density of between 300 and 800 cells/well. […]
(§3) Ninety-six hours following the addition of GEM or transfection mixtures, the number of viable cells was determined with CellTiter-Glo®-2.0 reagent (Promega, Madison, WI) by measuring luminescent signal using a Cytation 5 plate reader (BioTek Inc, Winooski, VT). […]
(§4) Using the same or similar experimental condition as are described above in Example 1, the effects of (i) PGN7 (SEQ. ID No. 9-10) plus a non-signaling oligonucleotide (“NS”), (ii) BCLxL #5 (SEQ. ID No. 14)+NS, and (iii) PGN7 and BCLxL #5 in combination were evaluated and are shown in triple negative breast cancer (MDA-MB231) and ovarian cancer (OVCAR3) cell lines in FIGS. 13 (a)-(b). […]

OVCAR3 cells = test: Cell viability in ovarian cancer cell line OVCAR3; format: cell-based; settings: OVCAR3, 800 cells per well; FIG. 13(b)
Method: as §1, §2, §3, §4

[1] = system: HT1376, HTB-9, N87 and OVCAR-3 cell lines; test: Cell viability in urinary bladder, gastric and ovarian cancer cell lines; format: cell-based; settings: HT1376, HTB-9, N87, OVCAR-3; FIGS. 9-10
Method: as §1, §2, §3
Using the same or similar experimental condition as are described above in Example 1, the effects of PGN7 (SEQ. ID No. 9-10), Wee1 (SEQ. ID No. 13), BCLxL #5 (SEQ. ID No. 14) or the PGN7+Wee1, or PGN+BCLxL combinations were evaluated and are shown in HT1376 (400 cells/well) and HTB-9 (800 cells/well) urinary bladder cancer cell lines, N87 (600 cells/well) gastric cancer cell line, and OVCAR-3 (800 cells/well) ovarian cancer line in FIGS. 11 (a)-(d). […]

[2] = system: MIA PaCa-2 human pancreatic cancer xenograft; test: PGN6 efficacy on pancreatic tumor growth in NOD/SCID mice inoculated with MIA PaCa-2; format: in vivo, mouse
Source text: Twenty, 6- to 9-week old NOD/SCID female mice were purchased from the Jackson Laboratory. Each mouse was tagged for identification at the beginning of the study. Up to 5 mice were housed in a single cage with standard corn cob bedding for a minimum of three days for stabilization; bedding was changed every two weeks. Fluorescent lighting was provided on a 12-hour cycle; temperature was maintained between 68-79 degrees F. at 30-70 percent humidity. Mice were fed an 18 percent soy irradiated rodent feed (Envigo) and autoclaved acidified water (pH 2.5-3) were available to all animals ad libitum. The mice were observed daily for clinical signs of disease.
Tumor cell preparation: Cryogenic vials containing tumor cells were thawed and cultured according to the manufacturer's protocol. On the day of inoculation, cells were washed in a serum-free media, counted, and resuspended in cold serum-free media at a concentration of 3 million cells per 100 microliters. […]
Tumor measurement: Mice were monitored weekly for palpable tumors or changes in appearance or behavior. Once tumors were palpable they were measured weekly using calipers. Tumor volume was calculated using the equation: […]
Once tumors were on average between 150-250 mm^3 in volume, tumors and body weights were measured at least twice weekly for the duration of the study. […]

[3] = system: pancreatic, lung and colon cancer cell lines; test: Cell viability in pancreatic, lung and colon cancer cell lines; format: cell-based
Method: as §1
(§5) The day before transfection, cells were seeded in a 384-well plate at an optimal density of between 300 and 800 cells/well. The next day, ten 3-fold serial dilutions of single, modified-backbone siRNAs or PGN6/PGN7 siRNA and Gemcitabine (GEM) mixed with siRNAs: Wee1 #7, KRAS #1, MCL1 #3 or DM2-P47 siRNAs at 1:1 ratio were prepared and combined with diluted Lipofectamine RNAiMAX (Life Technologies, Carlsbad, CA). Within 20 minutes, 10 μl of the transfection mixtures were added to the cells in a 40 μL medium. The final concentrations of siRNAs or Gemcitabine in the wells ranged from 100 nM to 0.002 nM.
(§6) Ninety-six hours following the addition of GEM or transfection mixtures, the number of viable cells was determined with CellTiter-Glo®-2.0 reagent (Promega, Madison, WI) by measuring luminescent signal using a Cytation 5 plate reader (BioTek Inc, Winooski, VT). The treatment group (n=4) mean (±SD) was compared to those of non-treated controls and were reported as relative cell viability.
Using the same experimental conditions as are described above in Example 1, the efficacy on cell viability was evaluated for PGN6 (SEQ. ID Nos. 7-8), with and without lipofentamine (“lipo”) in three types of cancer cell lines. FIG. 3 (a)-(c) show the effects of PGN6, with and without lipo on cell viability at increasing siRNA levels in pancreatic cancer cell lines. FIG. 4 (a)-(b) similarly show the effects of these variants on cell viability in lung cancer cell lines; FIG. 5 (a)-(b) show the effects of these variants on cell viability in colon cancer cell lines. All data are shown as mean±SD. […]
Using the same experimental conditions as are described above in Example 1, the efficacy of STD1 (SEQ. ID Nos. 1-2), PGN6 (SEQ. ID Nos. 7-8) and PGN7 (SEQ. ID Nos. 9-10) were evaluated in three types of cancer cell lines. […]
Using the same experimental conditions as are described above in Example 1, the efficacy of PGN7 (SEQ. ID No. 9-10) alone and its combination with WEE1 #7 (SEQ. ID No. 13) was evaluated in three types of cancer cell lines. […]
Using the same experimental conditions as are described above in Example 1, the efficacy of PGN7 (SEQ. ID No. 9-10) and the combination of BCLxL #5 (SEQ. ID No. 14) and PGN7 was evaluated in three types of cancer cell lines. […]

MiaPaCa-2 cells = test: Cell viability (CellTiter-Glo) in MiaPaCa-2 pancreatic cancer cells after transfection; format: cell-based, human; settings: Homo sapiens, MIA PaCa-2
Method: as §1, §5, §6

Compound: BCLxL #5: siRNA sequence used to target BCLxL, SEQ. ID No. 14 (no GEM) (GCGTGGAAAGCGTAGACAAGGAGAT; listed as DNA, chemistry not given here)
IC50 (MDA-MB231 cells): 0.5 nM
IC50 (OVCAR3 cells): 2.7 nM

Compound: WEE1 #7: siRNA sequence used to target WEE1, SEQ. ID No. 13 (no GEM) (CGCTCTGTCAGCCTTACTA; listed as DNA, chemistry not given here)
efficacy on cell viability [1]: significant efficacy

Compound: PGN6: modified siRNA-GEM molecule (SEQ. ID No. 7-8): sense 5′-AAGAAAgAgau [GEM]UGUAU[GEM]AAU-3′; antisense 5′-AuUGAuACAGAUCuCuuucuu[GEM][GEM]dTdT-3′ (sense AAGAAAGAGATCTGTATCAAT; antisense ATTGATACAGATCTCTTTCTTCCTT; GEM modifications; dTdT overhang; modified_base 1 OTHER; 2'-O-methyl modified nucleotide; modified_base 2 OTHER; modified_base 3 OTHER; modified_base 4 OTHER; modified_base 5 OTHER; modified_base 6 OTHER; modified_base 7 OTHER; 2'-fluoro modified nucleotide; modified_b; 2'-O-me)
pancreatic tumor volume / tumor growth ([2]; 2 mg/kg IV twice weekly for three weeks, with DODAB siRNA in HKP(+H), vs control, n=10, FIG. 12(a)): attenuate or prevent tumor growth; also recorded: tumors did not grow; also recorded: attenuating the growth of pancreatic tumors
body weight ([2]; 2 mg/kg twice weekly, 20 days treatment period, FIG. 12(b)): body weight remained constant
effectiveness with lipofectamine versus without lipofectamine ([3]; lung (FIG. 4) and colon (FIG. 5) cancer cell lines): apparently more effective
effectiveness with lipofectamine versus without lipofectamine ([3]; pancreatic lines MiaPaCa (G12C), BXPC3 (WT), Panc10.05, FIG. 3): more effective
reduction of cell viability ([3]; single siRNA against non-silencing control, pancreatic, lung, colon, FIG. 6): effective in reducing cell viability

IC50 (MiaPaCa-2 cells; in combination with lipofectamine, 96 h, n=4 (FIG. 2), read-out: IC50, MiaPaCa-2 cell viability): 8 nM
IC50 (MiaPaCa-2 cells; with lipofectamine (GEM alone for gemcitabine), FIG. 2, read-out: ID50, MiaPaCa cells): 8 nM
Compound: Nc1ccn([C@@H]2O[C@H](CO)[C@@H](O)C2(F)F)c(=O)n1 [Gemcitabine, 2′, 2′-difluoro 2′-deoxycytidine]
